Residue numbers refer to the chain shown, from its start. Values joined by “and” are separate entries in the source; they are usually repeats but may differ in a detail not shown here. Equal entries are not always repeated.
Key:
Test in all cases: NPY-induced IP accumulation (IP-One), mutant
Type in all cases: cell-based
[1] = biological target: T1, Y2R mutant L284^6.51A (Homo sapiens, UniProt P49146, L284A)
T1 construct: expressed in transfected cells; host or cells: HEK293
T1 sequence (P49146 1-381 L284A): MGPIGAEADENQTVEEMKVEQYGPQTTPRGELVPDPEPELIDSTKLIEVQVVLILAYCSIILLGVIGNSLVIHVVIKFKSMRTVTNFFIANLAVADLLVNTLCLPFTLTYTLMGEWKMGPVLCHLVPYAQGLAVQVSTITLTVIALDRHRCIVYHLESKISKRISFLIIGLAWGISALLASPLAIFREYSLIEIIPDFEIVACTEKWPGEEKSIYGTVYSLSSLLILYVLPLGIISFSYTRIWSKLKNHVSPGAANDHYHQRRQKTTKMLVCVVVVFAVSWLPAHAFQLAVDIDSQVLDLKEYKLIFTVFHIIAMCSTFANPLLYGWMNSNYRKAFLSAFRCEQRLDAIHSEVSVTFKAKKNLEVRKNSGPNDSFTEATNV

[2] = biological target: T2, Y2R mutant S220^5.39A (Homo sapiens, UniProt P49146, S220A)
T2 construct: expressed in transfected cells; host or cells: HEK293
T2 sequence (P49146 1-381 S220A): T1 sequence (P49146 1-381 L284A) with S220A, A284L

[3] = biological target: T3, Y2R mutant H285^6.52T (Homo sapiens, UniProt P49146, H285T)
T3 construct: expressed in transfected cells; host or cells: HEK293
T3 sequence (P49146 1-381 H285T): T1 sequence (P49146 1-381 L284A) with A284L, H285T

[4] = biological target: T4, Y2R mutant Y110^2.64A (Homo sapiens, UniProt P49146, Y110A); settings: 1 μM antagonist, source data Fig. 3
T4 construct: expressed in transfected cells; host or cells: HEK293
T4 sequence (P49146 whole entry Y110A): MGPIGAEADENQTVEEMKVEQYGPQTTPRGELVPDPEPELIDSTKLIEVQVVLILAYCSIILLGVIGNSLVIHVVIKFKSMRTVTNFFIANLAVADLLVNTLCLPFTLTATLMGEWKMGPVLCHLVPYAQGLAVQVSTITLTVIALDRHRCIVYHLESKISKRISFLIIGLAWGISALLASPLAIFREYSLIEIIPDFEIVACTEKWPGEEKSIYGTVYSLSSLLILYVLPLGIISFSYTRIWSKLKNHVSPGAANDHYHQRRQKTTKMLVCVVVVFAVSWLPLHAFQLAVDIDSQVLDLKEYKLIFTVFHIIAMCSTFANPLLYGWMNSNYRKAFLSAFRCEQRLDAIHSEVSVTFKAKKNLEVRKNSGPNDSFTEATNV

[5] = biological target: T5, Y2R mutant F307^7.35A (Homo sapiens, UniProt P49146, F307A)
T5 construct: expressed in transfected cells; host or cells: HEK293
T5 sequence (P49146 1-381 F307A): T1 sequence (P49146 1-381 L284A) with A284L, F307A

[6] = biological target: T6, Y2R mutant S223^5.42A (Homo sapiens, UniProt P49146, S223A); settings: 1 μM antagonist, source data Fig. 3
T6 construct: expressed in transfected cells; host or cells: HEK293
T6 sequence (P49146 whole entry S223A): as the sequence (P49146 whole entry Y110A) above, with A110Y, S223A counted along it

[7] = biological target: T7, Y2R mutant F307^7.35E (Homo sapiens, UniProt P49146, F307E); settings: 1 μM antagonist, source data Fig. 3
T7 construct: expressed in transfected cells; host or cells: HEK293
T7 sequence (P49146 whole entry F307E): as the sequence (P49146 whole entry Y110A) above, with A110Y, F307E counted along it

[8] = 1 μM antagonist, source data Fig. 3
[9] = EC50(NPY + 1 μM antagonist)/EC50(NPY)
[10] = EC50 ratio (WT)/EC50 ratio (mutant)

Compound: N=C(N)NCCC[C@H](NC(=O)CC1(CC(=O)N2CCN(C3c4ccccc4NC(=O)c4ccccc43)CC2)CCCC1)C(=O)NCCn1c(=O)n(-c2ccccc2)n(-c2ccccc2)c1=O (stereo partly drawn) [BIIE0246]
- Average EC50 ratio [1, 8]: 108.6
- EC50 ratio (individual experiments) [1, 8]: 88.8 and 128.4
- EC50 ratio [1, 9]: 89 and 128
- Ratio change (fold) [1, 10]: 1.8 fold and 1.2 fold
- Average EC50 ratio [2, 8]: 502.4
- EC50 ratio (individual experiments) [2, 8]: 515.1 and 489.7
- EC50 ratio [2, 9]: 515 and 490
- Ratio change (fold) [2, 10]: 0.3 fold
- Average EC50 ratio [3, 8]: 2.7
- EC50 ratio (individual experiments) [3, 8]: 3.5 and 1.9
- Ratio change (fold) [3, 10]: 45 fold and 84 fold
- Average EC50 ratio [4]: 47.6
- EC50 ratio (individual experiments) [4]: 25.1 and 70.1
- Average EC50 ratio [5, 8]: 89.4
- EC50 ratio (individual experiments) [5, 8]: 68.0 and 110.9
- EC50 ratio [5, 9]: 68 and 111
- Ratio change (fold) [5, 10]: 2 fold and 1.4 fold
- Average EC50 ratio [6]: 168.7
- EC50 ratio (individual experiments) [6]: 275.8 and 61.6
- Average EC50 ratio [7]: 232.3
- EC50 ratio (individual experiments) [7]: 75.3 and 389.3

Reference: article PMC7854658, “Structural basis for ligand recognition of the neuropeptide Y Y2 receptor” (Nature Communications, 2021)
